Experimental data as given in article PMC7177849, “Gut Microbial Catabolites of Tryptophan Are Ligands and Agonists of the Aryl Hydrocarbon Receptor: A Detailed Characterization” (International Journal of Molecular Sciences, 2020).
Where two headings read alike, the source gives them in different places.

Key:
CYP1A1 mRNA [1] = assay: CYP1A1 mRNA (qRT-PCR) in intestinal LS180 cells; format: cell-based, human
Description: (§1) Figure 4 Effects of MICT on the induction of CYP1A1 mRNA in human hepatic and intestinal cells. Cultured cells were incubated for 24 h with the vehicle (DMSO; 0.1% v/v) and tested MICT in the presence or absence of TCDD (10 nM). RT-PCR determined the level of CYP1A1 mRNA, and the data were normalized per GAPDH mRNA level. […] (A,B) Experiments in three consecutive passages of human colon adenocarcinoma cell line LS180 in the absence (A) and the presence (B) of 10 nM TCDD. The bar graphs show the percentage of maximal induction attained by TCDD and are expressed as the mean ± SD. (C) Experiments in three consecutive passages of wild-type (AhR^+/^+) and AhR-knockout (AhR^−/^−) HT-29 cells. […] (D) Primary human hepatocytes from three different donors (LH79, Hep2201020, and Hep2201021).
(§2) Total RNA was isolated using TRI Reagent® (Sigma Aldrich, Prague, Czech Republic). cDNA was synthesized using M-MuLV reverse transcriptase (New England Biolabs, Ipswich, MA, USA). The reverse transcription was performed at 42 °C for 60 min using Random Primers 6 (New England Biolabs, Ipswich, MA, USA) and diluted in a 1:4 ratio by PCR-grade water. The quantitative reverse transcriptase-polymerase chain reaction (qRT-PCR) was performed on the Lightcycler 480 II using the LightCycler ® 480 Probes Master (Roche Diagnostic Corporation, Prague, Czech Republic). The levels of CYP1A1 and GAPDH mRNAs were determined using the Universal Probe Library probes (UPL; Roche Diagnostic Corporation, Prague, Czech Republic) in combination with specific primers, using a protocol described elsewhere. All measurements were performed in triplicates, and the gene expression was normalized to glyceraldehyde-3-phosphate dehydrogenase (GAPDH) as a house-keeping gene. The data were processed using the delta-delta Ct method and expressed as a fold induction over the negative control (DMSO) or as a percentage of the positive control (maximal induction by TCDD).

CYP1A1 mRNA [2] = assay: Summary of CYP1A1 gene expression in human hepatic and intestinal cells; format: cell-based; details: Table 1 summary class; CYP1A1
Description: as §1, §2

CYP1A1 mRNA [3] = assay: CYP1A1 mRNA (qRT-PCR) in primary human hepatocytes; format: cell-based; details: three donors, 24 h
Description: as §1
Primary human hepatocyte cultures were from two sources: (i) long-term human hepatocytes in monolayer batch Hep2201020 (person) and Hep2201021 (person) were purchased from Biopredic International (Rennes, France); (ii) primary human hepatocytes from multiorgan donor LH79 were prepared at Palacky University Olomouc. Liver tissue was obtained from Faculty Hospital Olomouc, and the tissue acquisition protocol followed the requirements issued by the “Ethical Committee of the Faculty Hospital Olomouc, Czech Republic” and Transplantation law #285/2002 Coll.
as §2

AhR = target: T1, AhR (Homo sapiens, UniProt P35869); assay: Summary of AhR cell functions (translocation; heterodimerization; DNA-binding) in LS180 cells; format: cell-based; design: 0.1% V/V), TCDD (10 nM), and test MICT; host or cells: LS180 cells; details: Table 1 summary class
T1 sequence (P35869 11-848): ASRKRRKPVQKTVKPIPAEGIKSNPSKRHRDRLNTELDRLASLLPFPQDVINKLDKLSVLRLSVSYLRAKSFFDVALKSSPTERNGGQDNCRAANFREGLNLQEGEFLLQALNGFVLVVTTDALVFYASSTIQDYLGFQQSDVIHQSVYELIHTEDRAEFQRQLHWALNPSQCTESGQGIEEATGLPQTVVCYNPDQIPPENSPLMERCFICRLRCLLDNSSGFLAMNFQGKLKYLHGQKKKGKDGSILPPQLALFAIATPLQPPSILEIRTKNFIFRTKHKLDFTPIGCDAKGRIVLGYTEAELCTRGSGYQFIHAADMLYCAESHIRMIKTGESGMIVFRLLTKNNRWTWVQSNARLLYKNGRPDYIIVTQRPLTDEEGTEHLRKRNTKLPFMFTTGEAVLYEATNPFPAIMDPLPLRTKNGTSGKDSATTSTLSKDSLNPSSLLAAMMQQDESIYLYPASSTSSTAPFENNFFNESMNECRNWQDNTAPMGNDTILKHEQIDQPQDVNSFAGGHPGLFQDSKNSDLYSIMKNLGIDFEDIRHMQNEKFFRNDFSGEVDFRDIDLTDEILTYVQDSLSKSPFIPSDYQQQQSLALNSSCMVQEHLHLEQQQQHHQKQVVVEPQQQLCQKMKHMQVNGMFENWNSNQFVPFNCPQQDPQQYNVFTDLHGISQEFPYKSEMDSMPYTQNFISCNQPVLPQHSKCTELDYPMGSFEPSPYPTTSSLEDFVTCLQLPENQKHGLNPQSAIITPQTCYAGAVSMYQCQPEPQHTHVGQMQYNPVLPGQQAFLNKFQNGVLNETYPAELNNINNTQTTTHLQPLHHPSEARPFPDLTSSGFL
Description: LS180 cells (60,000 cells/well) were plated on 8-well chambered slides (94.6140.802, Sarstedt, Nümbrecht, Germany) and allowed to grow overnight. Then, the cells were incubated with DMSO (0.1% V/V), TCDD (10 nM), IND (1000 µM), IPY (200 µM), 3MI (200 µM), TA (200 µM), IAC (100 µM), and IAD (200 µM). The staining procedure was described in detail elsewhere. The images were captured using an IX73 fluorescence microscope (Olympus, Tokyo, Japan). The immunofluorescence signal intensity (of the AhR antibody) in the nucleus was evaluated visually. For percentage calculation, approximately 500 cells from at least four randomly selected fields of view in each specimen were used.
LS180 cells (4 million) were seeded in a 60-mm dish in Dulbecco’s modified Eagle’s medium (D6546; Sigma Aldrich). The following day, the cells were incubated with DMSO (0.1% V/V), TCDD (10 nM), IND (1000 µM), IPY (200 µM), 3MI (200 µM), TA (200 µM), IAC (100 µM), and IAD (200 µM) for 90 min at 37 °C. ChIP assay was performed as we described in detail elsewhere.
Intestinal LS180 cells were incubated with TCDD, tested MICT, and vehicle (DMSO; 0.1% V/V) for 90 min at 37 °C. The Pierce™ Co-Immunoprecipitation Kit (Thermo Fisher Scientific) with covalently coupled AhR antibody (mouse monoclonal, sc-133088, A-3, Santa Cruz Biotechnology) was used. Eluted protein complexes and total parental lysates were resolved on SDS-PAGE gels followed by Western Blot analysis and immuno-detection with ARNT-1 antibody (mouse monoclonal, sc-17812, G-3, Santa Cruz Biotechnology). Chemiluminescent detection was performed using horseradish peroxidase-conjugated anti-mouse secondary antibody (7076S, Cell Signaling Technology) and WesternSure® PREMIUM Chemiluminescent Substrate (LI-COR Biotechnology) by C-DiGit® Blot Scanner (LI-COR Biotechnology).

[4] = LS180 cells co-incubated with TCDD (10 nM), 24 h

For `O=Cc1c[nH]c2ccccc12` [IA, indole-3-aldehyde], the “antagonistic effects on CYP1A1 mRNA” value (CYP1A1 mRNA [1]; [4]) was “antagonistic effects were observed primarily” and the “Gene Expression” value (CYP1A1 mRNA [2]) was “inactive”.
In the case of `O=C(O)C(O)Cc1c[nH]c2ccccc12` (stereo not drawn) [ILA, indole-3-lactate], the “antagonistic effects on CYP1A1 mRNA” value (CYP1A1 mRNA [1]; [4]) is reported as “to a lesser extent” and the “Gene Expression” value (CYP1A1 mRNA [2]) is reported as “inactive”.
For `O=C(O)C(=O)Cc1c[nH]c2ccccc12` [IPY, indole-3-pyruvate], the “antagonistic effects on CYP1A1 mRNA” value (CYP1A1 mRNA [1]; [4]) was “antagonistic effects were observed primarily”, the “induction of CYP1A1 mRNA” value (CYP1A1 mRNA [1]; LS180 cells, 24 h) was “strong induction” and the “induction of CYP1A1 mRNA” value (CYP1A1 mRNA [3]) was “induced”. For the same molecule, the “Gene Expression” value (CYP1A1 mRNA [2]) was “strong inducer” and the “AhR Cell Functions (Translocation); Heterodimerization; DNA-Binding” value (“AhR Cell Functions (Translocation)” for short) (AhR) was “highly active–all parameters”.
With `NC(=O)Cc1c[nH]c2ccccc12` [IAD, indole-3-acetamide] the “induction of CYP1A1 mRNA” value (CYP1A1 mRNA [1]; LS180 cells, 24 h) was “strong induction”, the “induction of CYP1A1 mRNA” value (CYP1A1 mRNA [3]) was “induced” and the “Gene Expression” value (CYP1A1 mRNA [2]) was “strong inducer”. The “AhR Cell Functions (Translocation)” value (AhR) was “highly active–all parameters”.
`c1ccc2[nH]ccc2c1` [IND, indole] was tested, and the “antagonistic effects on CYP1A1 mRNA” value (CYP1A1 mRNA [1]) was “antagonistic effects were observed primarily”, the “induction of CYP1A1 mRNA” value (CYP1A1 mRNA [1]) was “strong induction” and the “induction of CYP1A1 mRNA” value (CYP1A1 mRNA [3]) was “induced”. The “Gene Expression” value (CYP1A1 mRNA [2]) was “strong inducer” and the “AhR Cell Functions (Translocation)” value (AhR) was “highly active–all parameters”.
In the case of `O=C(O)/C=C/c1c[nH]c2ccccc12` [IAC, indole-3-acrylate], the “antagonistic effects on CYP1A1 mRNA” value (CYP1A1 mRNA [1]; [4]) is reported as “to a lesser extent”, the “induction of CYP1A1 mRNA” value (CYP1A1 mRNA [1]; LS180 cells, 24 h) is reported as “strong induction” and the “induction of CYP1A1 mRNA” value (CYP1A1 mRNA [3]) is reported as “induced”. The “Gene Expression” value (CYP1A1 mRNA [2]) was “strong inducer” and the “AhR Cell Functions (Translocation)” value (AhR) was “highly active–all parameters”.
In the case of `NCCc1c[nH]c2ccccc12` [TA, tryptamine], the “induction of CYP1A1 mRNA” value (CYP1A1 mRNA [1]; LS180 cells, 24 h) is reported as “strong induction”, the “induction of CYP1A1 mRNA” value (CYP1A1 mRNA [3]) is reported as “lack of induction” and the “Gene Expression” value (CYP1A1 mRNA [2]) is reported as “strong inducer”. For the same molecule, the “AhR Cell Functions (Translocation)” value (AhR) was “highly active–all parameters”.
`Cc1c[nH]c2ccccc12` [3MI, skatole] was tested, and the “antagonistic effects on CYP1A1 mRNA” value (CYP1A1 mRNA [1]; [4]) was “antagonistic effects were observed primarily”, the “induction of CYP1A1 mRNA” value (CYP1A1 mRNA [1]; LS180 cells, 24 h) was “strong induction” and the “induction of CYP1A1 mRNA” value (CYP1A1 mRNA [3]) was “induced”. For the same molecule, the “Gene Expression” value (CYP1A1 mRNA [2]) was “strong inducer” and the “AhR Cell Functions (Translocation)” value (AhR) was “highly active–all parameters”.
`OCCc1c[nH]c2ccccc12` [IET, indole-3-ethanol] was tested, and the “Gene Expression” value (CYP1A1 mRNA [2]) was “inactive”.
